Reference: ChEMBL document CHEMBL6114974, “Development of novel BACE1 inhibitors with a hydroxyproline-derived N-amidinopyrrolidine scaffold” (Bioorg Med Chem, 2025)

Target: Beta-secretase 1 (Homo sapiens, UniProt P56817)
Test: Inhibition of recombinant BACE1 (unknown origin) using H-Ile-Lys-Thr-Glu-Glu-Ile-Ser-Glu-Val-Asn-Leu-Asp-Ala-Glu-Phe-Arg-His-Asp-Ser-Gly-NH2 as substrate measured after 90 mins by HPLC analysis

Sequence of Beta-secretase 1 (P56817 whole entry): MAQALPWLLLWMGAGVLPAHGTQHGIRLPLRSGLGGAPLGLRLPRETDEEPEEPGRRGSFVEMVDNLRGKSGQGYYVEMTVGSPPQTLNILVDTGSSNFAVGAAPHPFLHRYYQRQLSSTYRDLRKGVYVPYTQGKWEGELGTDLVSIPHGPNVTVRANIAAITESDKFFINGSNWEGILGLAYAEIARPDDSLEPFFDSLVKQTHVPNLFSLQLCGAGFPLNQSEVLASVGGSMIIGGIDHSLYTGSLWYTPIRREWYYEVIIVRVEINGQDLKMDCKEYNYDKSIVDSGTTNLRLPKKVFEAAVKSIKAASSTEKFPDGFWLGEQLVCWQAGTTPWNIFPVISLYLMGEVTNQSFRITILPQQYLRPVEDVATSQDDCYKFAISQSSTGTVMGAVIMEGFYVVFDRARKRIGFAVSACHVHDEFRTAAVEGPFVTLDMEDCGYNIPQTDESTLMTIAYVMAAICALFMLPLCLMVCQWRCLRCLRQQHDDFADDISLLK

IC50: 57 nM
Structure (SMILES): C[C@H]1OC[C@]2(c3cc(NC(=O)c4cnc(C(F)F)cn4)ccc3F)N=C(N)SC[C@H]12 [ELENBECESTAT]
